In patent US8101774B2, “Ester derivatives and medicinal use thereof” (Japan Tobacco Inc., priority 2004, dated 2012) one finds IC50 data, which are given here for 19 molecules.

As a reminder, the IC50 is the concentration needed to halve the response being measured. A high value points to weaker potency in that assay.

Counter-ions that a name gives are not always drawn.

This assay has as its target T1, Microsomal triglyceride transfer protein (MTP) from human small intestine microsome (Homo sapiens, UniProt P55157).
T1 construct: Human small intestine microsome was dialyzed against 10 mM phosphate buffer; tissue Tissue Transforming Technologies, Inc; host or cells: human small intestine microsome
In words: Inhibition test of interliposomal triglyceride (TG) transfer activity by MTP. It counts as biochemical. Conditions: purified MTP from human small intestine microsome, 37° C., 1.5 hours. How it is done: Microsomal triglyceride transfer protein (MTP) from human small intestine microsome (manufactured by Tissue Transforming Technologies, Inc.) was purified in such a way described below. Human small intestine microsome was dialyzed against 10 mM phosphate buffer (300 mL, pH 6.8) twice for about 2 hours and once for further not less than 12 hours, at about 4° C. After dialysis, the mixture was centrifuged at 4° C. and 15,000×g for 5 minutes and then the supernatant was recovered. The previously recovered supernatant was purified by column chromatography on diethylaminoethyl (DEAE) Sepharose using FPLC (Fast Performance Liquid Chromatography) system, and the purified MTP was used for the test as described below.
Small unilamellar-vesicle (SUV) liposome (hereinafter described as donor, containing 0.25% (mol/mol) triolein and 5% (mol/mol) cardiolipin) constituted by triolein labeled with ^14C and non-labeled SUV liposome (hereinafter described as acceptor, containing […] triolein) were prepared in such a way described below.
Firstly, in order to prepare the donor, there were volatilized under a stream of nitrogen gas a phosphatidylcholine solution containing phosphatidylcholine labeled with ^3H, a cardiolipin solution, and a triolein solution containing triolein labeled with ^14C (each solution had been already dissolved in an appropriate organic solvent), or in order to prepare the acceptor, there were volatilized under nitrogen flow a phosphatidylcholine solution containing phosphatidylcholine labeled with ^3H and a cardiolipin solution (each solution had been already dissolved in an appropriate organic solvent). An appropriate amount of a reaction buffer (15 mM Tris-HCl buffer containing 1 mM EDTA.Na2, 40 mM NaCl, and 0.5% (w/v) bovine serum albumin, pH 7.4) was added thereto to be emulsified. The emulsions were treated with ultrasonication under ice-cooling and centrifuged at 4° C. and 159,000×g for 2 hours. Each of the resulting supernatant was used for donor or acceptor.
Each radioactivity in the acceptor and the donor was measured by liquid scintillation counter, and a mixed solution of the acceptor and the donor was prepared with a reaction buffer so as to be a donor-derived radioactivity of 16,000 dpm/400 μL and a acceptor-derived radioactivity of 4,000 dpm/[…]. 400 μL of the mixed solution of the donor and the acceptor, 45 μL of the reaction buffer, 50 μL of MTP (20 μg/mL), and 5 μL of a sample dissolved in DMSO (dimethyl sulfoxide) or 5 μL of DMSO was mixed (total amount: 500 μL). The mixture was incubated at 37° C. for 1.5 hours. After completion of the incubation, 1.25 mL of a suspension of DEAE cellulose (66.7% (v/v)) in 15 mM Tris-HCl buffer (pH 7.4) containing 1 mM EDTA.Na2 was added to the above solution. The mixture was centrifuged to separate the donor (adsorbed on the DEAE cellulose to precipitate) and the acceptor (the supernatant). The radioactivity in the acceptor was measured by liquid scintillation counter. The value obtained by subtracting the radioactivity in a blank group from the radioactivity in the acceptor of a DMSO group was determined as MTP-mediated TG transfer activity, and it was compared with the value obtained by subtracting the radioactivity in the blank group from the radioactivity in a sample group. Here, the blank was prepared by adding 10 mM phosphate buffer (pH 6.8) containing 250 mM NaCl in place of MTP. Inhibition rate (%) was calculated from values obtained according to the following equation. Inhibition rate(%)=(1 minus((radioactivity of sample group minus radioactivity of blank group)/(radioactivity of DMSO group minus radioactivity of blank group)))×100.
50% Inhibition rate (IC50) was determined on the basis of the above equation.

T1 sequence (P55157 19-894): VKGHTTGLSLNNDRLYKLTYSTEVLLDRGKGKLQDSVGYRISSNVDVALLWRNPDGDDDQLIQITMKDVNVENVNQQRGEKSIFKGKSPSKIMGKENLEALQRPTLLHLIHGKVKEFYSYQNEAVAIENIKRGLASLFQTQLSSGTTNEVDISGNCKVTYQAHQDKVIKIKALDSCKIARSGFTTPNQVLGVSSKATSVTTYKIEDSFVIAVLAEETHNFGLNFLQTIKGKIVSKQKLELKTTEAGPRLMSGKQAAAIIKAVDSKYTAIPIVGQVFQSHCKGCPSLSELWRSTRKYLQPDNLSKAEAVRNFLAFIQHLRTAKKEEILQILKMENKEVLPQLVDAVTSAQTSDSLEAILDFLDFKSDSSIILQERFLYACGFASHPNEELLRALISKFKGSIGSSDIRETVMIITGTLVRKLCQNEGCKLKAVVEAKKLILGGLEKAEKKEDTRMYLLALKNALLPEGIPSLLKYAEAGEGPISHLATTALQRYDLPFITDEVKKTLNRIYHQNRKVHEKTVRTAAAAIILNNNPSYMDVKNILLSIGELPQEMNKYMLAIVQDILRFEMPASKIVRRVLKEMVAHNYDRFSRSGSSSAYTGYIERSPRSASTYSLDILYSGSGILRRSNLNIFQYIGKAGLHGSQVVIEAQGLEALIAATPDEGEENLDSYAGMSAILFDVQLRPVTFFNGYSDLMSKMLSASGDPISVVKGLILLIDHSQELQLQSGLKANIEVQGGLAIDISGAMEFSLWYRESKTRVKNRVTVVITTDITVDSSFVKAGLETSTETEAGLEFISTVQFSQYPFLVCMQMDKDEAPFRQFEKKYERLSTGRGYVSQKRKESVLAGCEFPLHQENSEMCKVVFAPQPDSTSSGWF
T1 sequence (P07237 18-508 partner): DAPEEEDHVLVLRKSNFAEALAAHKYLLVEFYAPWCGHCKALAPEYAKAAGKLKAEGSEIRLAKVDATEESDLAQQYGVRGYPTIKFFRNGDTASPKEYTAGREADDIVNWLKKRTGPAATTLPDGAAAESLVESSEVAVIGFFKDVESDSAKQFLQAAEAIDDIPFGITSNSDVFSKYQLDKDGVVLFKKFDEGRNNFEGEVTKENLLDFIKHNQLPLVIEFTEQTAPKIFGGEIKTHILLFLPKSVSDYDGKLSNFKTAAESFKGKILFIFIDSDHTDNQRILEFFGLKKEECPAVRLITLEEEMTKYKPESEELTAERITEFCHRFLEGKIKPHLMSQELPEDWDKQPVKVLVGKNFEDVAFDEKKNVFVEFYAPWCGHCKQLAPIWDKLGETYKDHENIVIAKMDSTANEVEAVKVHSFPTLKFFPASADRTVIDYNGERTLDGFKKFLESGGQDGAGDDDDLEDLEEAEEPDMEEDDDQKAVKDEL

As to `COc1cc(C(=O)OCCNC(C)=O)cc(Cl)c1OC(=O)CCCc1ccc(NC(=O)c2ccc(C)nc2-c2ccc(C(F)(F)F)cc2)c(C(=O)N(C)C)c1` [Compound 1-114, 3-chloro-4-[4-(3-dimethylcarbamoyl-4-{[6-methyl-2-(4-trifluoromethylphenyl)pyridine-3-carbonyl]amino}phenyl)butyryloxy]-5-methoxybenzoic acid 2-acetylaminoethyl ester], the IC50 is less than 10 nM.
Molecule `COC(=O)c1cc(C(=O)OC(C)C)ccc1OC(=O)CCCc1ccc(NC(=O)c2ccc(C)nc2-c2ccc(C(F)(F)F)cc2)c(C(=O)N(C)C)c1` [Compound 1-72, 4-[4-(3-dimethylcarbamoyl-4-{[6-methyl-2-(4-trifluoromethylphenyl)pyridine-3-carbonyl]amino}phenyl)butyryloxy]isophthalic acid 1-isopropyl ester 3-methyl ester] gave an IC50 of less than 10 nM.
Turning to `CN(C)C(=O)c1cc(CCCC(=O)Oc2ccc(C(=O)OCc3ccc(C(=O)OC(C)(C)C)cc3)cc2)ccc1NC(=O)c1ccccc1-c1ccc(C(F)(F)F)cc1` [Compound 1-103, 4-[4-(3-dimethylcarbamoyl-4-{(4′-trifluoromethylbiphenyl-2-carbonyl)amino}phenyl)butyryloxy]benzoic acid 4-(t-butoxycarbonyl)benzyl ester], the IC50 is less than 10 nM.
`CN(C)C(=O)c1cc(CCCC(=O)Oc2ccc(C(=O)OCc3ccccn3)cc2)ccc1NC(=O)c1ccccc1-c1ccc(C(F)(F)F)cc1` [Compound 1-82, 4-[4-(3-dimethylcarbamoyl-4-{(4′-trifluoromethylbiphenyl-2-carbonyl)amino}phenyl)butyryloxy]benzoic acid pyridin-2-ylmethyl ester] yielded an IC50 of less than 10 nM.
With `CN(C)C(=O)c1cc(CCCC(=O)Oc2ccc(C(=O)OCc3ccncc3)cc2)ccc1NC(=O)c1ccccc1-c1ccc(C(F)(F)F)cc1` [Compound 1-84, 4-[4-(3-dimethylcarbamoyl-4-{(4′-trifluoremethylbiphenyl-2-carbonyl)amino}phenyl)butyryloxy]benzoic acid pyridin-4-ylmethyl ester], the IC50 is less than 10 nM.
Take `COC(=O)c1ccc(OC(=O)CCCc2ccc(NC(=O)c3ccccc3-c3ccc(C(F)(F)F)cc3)c(C(=O)N(C)C)c2)cc1Cl` [Compound 1-18, 2-chloro-4-(4-{3-dimethylcarbamoyl-4-[(4′-trifluoromethylbiphenyl-2-carbonyl)amino]phenyl}butyryloxy)benzoic acid methyl ester]: the IC50 was less than 10 nM.
`COC(=O)c1cc(C)c(OC(=O)CCCc2ccc(NC(=O)c3ccc(C)nc3-c3ccc(C(F)(F)F)cc3)c(C(=O)N(C)C)c2)c(OC)c1` [Compound 1-46, 4-[4-(3-dimethylcarbamoyl-4-{[6-methyl-2-(4-trifluoromethylphenyl)pyridine-3-carbonyl]amino}phenyl)butyryloxy]-3-methoxy-5-methylbenzoic acid methyl ester] had an IC50 of less than 10 nM.
Take `CN(C)C(=O)c1cc(CCCC(=O)Oc2ccc(-c3nnn(C)n3)cc2)ccc1NC(=O)c1ccccc1-c1ccc(C(F)(F)F)cc1` [Compound 1-95, 4-(3-dimethylcarbamoyl-4-{(4′-trifluoromethylbiphenyl-2-carbonyl)amino}phenyl)butyric acid 4-(2-methyl-2H-tetrazol-5-yl)phenyl ester]: the IC50 was less than 10 nM.
The molecule `COC(=O)c1ccc(OC(=O)CCc2ccc(NC(=O)c3ccccc3-c3ccc(C(F)(F)F)cc3)c(C(=O)N(C)C)c2)cc1` [Compound 1-27, 4-(3-{3-dimethylcarbamoyl-4-[(4′-trifluoromethylbiphenyl-2-carbonyl)amino]phenyl}propionyloxy)benzoic acid methyl ester] had an IC50 of 10 to 100 nM.
In the case of `CCOC(=O)c1cc(Cl)c(OC(=O)CCCc2ccc(NC(=O)c3ccc(C)nc3-c3ccc(C(F)(F)F)cc3)c(C(=O)N(C)C)c2)c(OC)c1` [Compound 1-48, 3-chloro-4-[4-(3-dimethylcarbamoyl-4-{[6-methyl-2-(4-trifluoromethylphenyl)pyridine-3-carbonyl]amino}phenyl)butyryloxy]-5-methoxybenzoic acid ethyl ester], the IC50 is less than 10 nM.
`COC(=O)c1cc(Br)c(OC(=O)CCCc2ccc(NC(=O)c3ccc(C)nc3-c3ccc(C(F)(F)F)cc3)c(C(=O)N(C)C)c2)c(OC)c1` [Compound 1-50, 3-bromo-4-[4-(3-dimethylcarbamoyl-4-{[6-methyl-2-(4-trifluoromethylphenyl)pyridine-3-carbonyl]amino}phenyl)butyryloxy]-5-methoxybenzoic acid methyl ester] registered an IC50 of less than 10 nM.
The molecule `Cc1ccc(C(=O)Nc2ccc(CCCC(=O)Oc3ccc(C(=O)OC(C)C)cc3)cc2C(=O)N(C)C)c(-c2ccc(C(F)(F)F)cc2)n1` [Compound 1-63, 4-[4-(3-dimethylcarbamoyl-4-{[6-methyl-2-(4-trifluoromethylphenyl)pyridine-3-carbonyl]amino}phenyl)butyryloxy]benzoic acid isopropyl ester sulfate] returned an IC50 of less than 10 nM.
With `COC(=O)c1ccc(OC(=O)CCCc2ccc(NC(=O)c3ccccc3-c3ccc(C(F)(F)F)cc3)c(C(=O)N(C)C)c2)c(F)c1` [Compound 1-10, 4-(4-{3-dimethylcarbamoyl-4-[(4′-trifluoromethylbiphenyl-2-carbonyl)amino]phenyl}butyryloxy)-3-fluoro benzoic acid methyl ester], the IC50 is less than 10 nM.
`CN(C)C(=O)c1cc(CCCC(=O)Oc2ccc(C(=O)OCc3cccnc3)cc2)ccc1NC(=O)c1ccccc1-c1ccc(C(F)(F)F)cc1` [Compound 1-83, 4-[4-(3-dimethylcarbamoyl-4-{(4′-trifluoromethylbiphenyl-2-carbonyl)amino}phenyl)butyryloxy]benzoic acid pyridin-3-ylmethyl ester]: the IC50 is less than 10 nM.
`COC(=O)c1ccc(-c2nc(C)ccc2C(=O)Nc2ccc(CCCC(=O)Oc3c(C)cc(C(=O)OC)cc3Cl)cc2C(=O)N(C)C)cc1` [Compound 4-1, 3-chloro-4-[4-(3-dimethylcarbamoyl-4-{[2-(4-methoxycarbonylphenyl)-6-methylpyridine-3-carbonyl]amino}phenyl)butyryloxy]-5-methylbenzoic acid methyl ester]: the IC50 was less than 10 nM.
Regarding `COc1cc(C(=O)OC(C)C)cc(Cl)c1OC(=O)CCCc1ccc(NC(=O)c2ccc(C)nc2-c2ccc(C(F)(F)F)cc2)c(C(=O)N(C)C)c1` [Compound 1-37, 3-chloro-4-[4-(3-dimethylcarbamoyl-4-{[6-methyl-2-(4-trifluoromethylphenyl)pyridine-3-carbonyl]amino}phenyl)butyryloxy]-5-methoxybenzoic acid isopropyl ester], the IC50 is less than 10 nM.
As for `CCc1cc(C(=O)OC)cc(Cl)c1OC(=O)CCCc1ccc(NC(=O)c2ccc(C)nc2-c2ccc(C(F)(F)F)cc2)c(C(=O)N(C)C)c1` [Compound 1-73, 3-chloro-4-[4-(3-dimethylcarbamoyl-4-{[6-methyl-2-(4-trifluoromethylphenyl)pyridine-3-carbonyl]amino}phenyl)butyryloxy]-5-ethylbenzoic acid methyl ester], the figure is less than 10 nM.
As for `COC(=O)c1ccc(OC(=O)CCCc2ccc(NC(=O)c3ccccc3-c3ccc(C(F)(F)F)cc3)c(C(=O)N(C)C)c2)c(OC)c1` [Compound 1-12, 4-(4-{3-dimethylcarbamoyl-4-[(4′-trifluoromethylbiphenyl-2-carbonyl)amino]phenyl}butyryloxy)-3-methoxybenzoic acid methyl ester], the figure is less than 10 nM; as for `CN(C)C(=O)c1cc(CCCC(=O)Oc2ccc(C(=O)OCCCO)cc2)ccc1NC(=O)c1ccccc1-c1ccc(C(F)(F)F)cc1` [Compound 1-92, 4-[4-(3-dimethylcarbamoyl-4-{(4′-trifluoromethylbiphenyl-2-carbonyl)amino}phenyl)butyryloxy]benzoic acid 3-hydroxypropyl ester], less than 10 nM.
